Measurements taken from patent US11986482B2, “Method of promoting antitumor or anti-cancer immunity” (City University of Hong Kong, priority 2021, dated 2024).
“Also recorded” adds a separate entry of the source.

Key:
Rab27a = molecular target: T1, Rab27a (Homo sapiens, UniProt P51159); test: GST-SHD pulldown assay of Rab27a activity; assay type: cell-based; conditions: HeLa cells, 1 μM
T1 construct: western blot analysis of Rab27a in HeLa cells treated with or without 6J1 (1 μM) through a GST-SHD pulldown assay; endogenous in cells; host or cells: HeLa cells
T1 sequence (P51159 1-221): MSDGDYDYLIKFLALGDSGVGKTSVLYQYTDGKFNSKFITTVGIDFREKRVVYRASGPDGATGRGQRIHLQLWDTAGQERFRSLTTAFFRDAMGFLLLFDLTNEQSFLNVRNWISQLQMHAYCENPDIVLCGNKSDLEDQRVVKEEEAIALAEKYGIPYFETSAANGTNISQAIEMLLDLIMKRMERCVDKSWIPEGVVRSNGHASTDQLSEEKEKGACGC
Experimental: It has previously been shown that interfering with endosomal trafficking promotes exosome secretion. Moreover, PD-L1 has been reported to be enriched in exosomes and secreted outside the cell. Thus, inventors speculate that 6J1 may induce the secretion of the PD-L1 trapped in the endosomal compartments via exosomes. To determine whether 6J1 may induce the secretion of PD-L1 via exosomes, HeLa cells are treated with or without 6J1 (1 μM) for 24 h. The supernatant is collected. Inventors purify the exosomes from the supernatant of HeLa cells by sequential centrifugation. The concentration of extracellular vesicle is determined using a Nanosight nanoparticle analyzer. And HeLa cells are treated with or without 6J1 (1 μM) for 48 h. The cell and supernatant are collected for Western Blot analysis. […] Moreover, the activity of Rab27a in HeLa cells treated with or without 6J1 (1 μM) is examined with a GST-SHD pulldown assay.

[1] = test system: HeLa, A549 and MDA-MB-231 cell lines; test: Cytotoxicity, Hochest 33342 cell number; assay type: cell-based; conditions: 24 h or 48 h
Experimental: The inventors also test the cytotoxicity of 6J1 in several cancer cell lines, HeLa, A549 and MDA-MB-231 cell lines. Cells are grown in 96-well plates in triplicate and treated with or without 6J1 at the concentrations of 0, 0.01, 0.1, 1, 10 and 100 μM indicated for 24 h or 48 h. They are then stained with propidium iodide (PI) or Hochest 33342 to measure the cell death ratio and cell number, respectively. […] Inventors also test the cytotoxicity of 6J1 in 4T1 cells. 4T1 cells are plated in 96-well plates in triplicate and treated with or without 6J1 at the concentrations of 0, 0.01, 0.1, 1, 5, 10, 20, 40, 80 and 100 μM indicated for 24 h or 48 h. The cell viability was then quantified via the MTT assay.

PD-L1 = test: Plasma membrane PD-L1 level in 4T1 cells (flow cytometry); assay type: cell-based, mouse; conditions: 1 μM
Experimental: The current PD-L1 and PD1 therapies apply PD-L1 or PD1 monoclonal antibodies to block the PD-L1/PD1 signaling, which results in cytotoxic T cells recognizing and killing the tumor cells. […] First, flow cytometry-based quantification of plasma membrane levels of PD-L1 in 4T1 cells treated with or without 6J1 (1 μM) for 24 h. 4T1 cells are treated with or without 6J1 (1 μM) for 24 h. The supernatant is collected, and the concentration of extracellular vesicle is determined using a Nanosight nanoparticle analyzer in FIG. 8b. The exosomes are also collected and subjected to western blot analysis of the EVs marker and PD-L1 in FIG. 8c.
Therefore, it is possible that the increased exosomal PD-L1 secretion induced by 6J1 may still suppress the tumor-infiltrating T cell cytotoxicity in vivo, even though 6J1 reduces the cell surface expression level of PD-L1 on the tumor cells. To evaluate the role of exosomal PD-L1 in the tumor microenvironment and tumor progression in mice, inventors knock out Rab27a in 4T1 cells to inhibit the secretion of exosomes. 4T1-shNC or 4T1-shRab27A cells are treated with or without 6J1 (1 μM). The supernatant is collected, and the concentration of extracellular vesicle is determined using a Nanosight nanoparticle analyzer. […] Inventors analyze the plasma membrane levels of PD-L1 in 4T1-shNC or 4T1-shRab27A cells treated with or without 6J1 (1 μM). […] Next, control or Rab27a-knockout 4T1 cells are orthotopically transplanted into syngeneic fat pads of female Balb/c. The mice are randomly divided (n=5 per group) and treated with either buffer or 6J1 (30 mg/kg, daily) via oral gavage. […] Inventors also perform the immunostaining of CD8 and Granzyme B in the tumor sections. […] Since enhanced antitumor immunity leads to increased apoptosis in tumors, inventors assess the levels of cleaved caspase3 (CCA3), one of the markers of apoptosis, in tumor sections as well.
Finally, inventors assess the combinatory effects of 6J1 with GW4869, an exosome secretion inhibitor, in the aforementioned orthotopic mammary carcinoma mouse models. […]

HeLa cells = test: Fluorescent transferrin conjugates recycling assay; assay type: cell-based; conditions: compound 3 h, Transferrin-488 25 μg/ml, flow cytometry
Experimental: A DQ-BSA endocytic trafficking assay screens these compounds. DQ-BSA, a self-quenching dye, is internalized into the cytoplasm by endocytosis, after which it is delivered to the lysosomes for degradation to relieve fluorescence-quenching, resulting in bright fluorescence in cells. HeLa cells are plated on 6-well plates and treated with the indicated compound for 3 h. Then, cells are replaced with Trafficking media containing 10 μg/ml DQ-green BSA with or without drugs (1 μM) and incubated at 37° C. in a 5% CO2 humidified cell culture chamber another 6 h followed by Flow cytometry analysis. […] Inventors also test whether these hit compounds can inhibit the recycling endosomal pathway by performing the fluorescent transferrin conjugates recycling assay. Iron-bound transferrin interacts with its receptor (TfR) to trigger the internalization of the iron-transferrin-TfR complex via clathrin-mediated endocytosis. Fe^3+ irons are subsequently dissociated from their ligands in the acidic endosome environment and released into the cytoplasm. […] Thus, the fluorescence intensity of fluorescent transferrin conjugates-labeled cells can reflect the recycling endocytic trafficking process. […] Cells are collected for flow cytometry analysis, and the mean fluorescence intensity of transferrin is quantified.

**Q.** With `OCCOCCN(c1ccccc1)c1nc(N/N=C/c2cccc(I)c2)nc(N2CCOCC2)n1` [Compound 6J1] as the molecule, how does the “activity of Rab27a-GTPase” value (Rab27a) read?
**A.** Its value is “significantly increases the activity of Rab27a-GTPase”.

**Q.** What about the “cell proliferation (cell number)” value ([1]; 0.01-100 μM) of the same molecule?
**A.** Its value is “inhibits cell proliferation in a concentration-dependent manner”.

**Q.** What about the “cell proliferation at effective concentrations” value ([1]; ≤1 μM, several cell types) of the same molecule?
**A.** The value was “only subtly inhibits cell proliferation”.

**Q.** And the “6J1-induced decrease of cell surface PD-L1 levels” value (PD-L1; 4T1-shRab27A cells)?
**A.** Its value is “does not influence the 6J1-induced decrease of cell surface PD-L1 levels”.

**Q.** What about the “level of cell surface PD-L1” value (PD-L1; 4T1 cells, 24 h) of the same molecule?
**A.** The value was “decreases the level of cell surface PD-L1”.

**Q.** What about the “recycling endosomal trafficking of transferrin (mean fluorescence intensity)” value (HeLa cells) of the same molecule?
**A.** The value was “effectively inhibit the recycling endosomal trafficking of transferrin; also recorded: performs best”.
